Reference: US20060002888A1, “Polyionenes for treating infections associated with cystic fibrosis” (Genzyme Corporation, priority 2002, published 2006)
In brackets after ≈: the same amount, converted by molar mass. Read-outs that look alike come from different tables or passages of the source.

Experiments:
[1] = tested on: P. aeruginosa; conditions: within 11 passages, published studies; cited from earlier work
[2] = tested on: A-549 lung epithelial cells; experiment: IC50 in A-549 lung epithelial cells; type: cell-based; conditions: Homo sapiens, A549
Description: (§1) Poly(trimethylene dipyridine-alt-5-oxanonane) having a molecular weight of 0.5 to 1 kDa was tested in A-549 lung epithelial cells to determine its IC50 value in comparison with tobramycin, a conventional antibiotic. In addition, the minimum inhibitory concentrations for the two compounds were determined in vitro for a number of bacterial strains and species. The results are as shown below, where all concentrations are expressed as μg/mL: […]

[3] = tested on: B. cepacia; experiment: Minimum inhibitory concentration in vitro (Example 26); type: cell-based; conditions: Burkholderia cepacia
Description: as §1

[4] = tested on: P. aeruginosa; experiment: as above; type: cell-based; conditions: Pseudomonas aeruginosa
Description: as §1

[5] = tested on: S. aureus; experiment: as above; type: cell-based; conditions: Staphylococcus aureus
Description: as §1

[6] = tested on: S. maltophilia; experiment: as above; type: cell-based; conditions: Stenotrophomonas maltophilia
Description: as §1

[7] = tested on: MRSA; conditions: over 15 passages, published studies; cited from earlier work

Row | Molecule | Rise of the MIC [1] | IC50 [2] | MIC [3] | MIC ([4]; strain G38, read-out: MIC P. aeruginosa G38) | MIC ([4]; strain PA01, read-out: MIC P. aeruginosa PA01) | MIC [5] | MIC [6] | Rise of the MIC [7]
1 | gentamicin | 190 fold | – | – | – | – | – | – | –
2 | NC[C@H]1O[C@H](O[C@H]2[C@H](O)[C@@H](O[C@H]3O[C@H](CO)[C@@H](O)[C@H](N)[C@H]3O)[C@H](N)C[C@@H]2N)[C@H](N)C[C@@H]1O [Tobramycin] | – | 5000 µg/mL (≈ 10700 µM) | > 50 µg/mL | 0.39 µg/mL (≈ 0.834 µM) | 0.39 µg/mL (≈ 0.834 µM) | 0.195 µg/mL (≈ 0.417 µM) | 25 µg/mL (≈ 53.5 µM) | –
3 | CCn1cc(C(=O)O)c(=O)c2cc(F)c(N3CCNCC3)cc21 [norfloxacin] | 10 fold | – | – | – | – | – | – | 85 fold
